Measured values published in patent publication US20220016144A1, “STABLE AQUEOUS COMPOSITION COMPRISING OLIGOSACCHARIDES” (SOCIETE DES PRODUITS NESTLE S.A., priority 2018, published 2022).

Assay: Example 2: HPLC analysis of oligosaccharides, fructose isomers and lactose at pH 6 and 7 over aseptic filling and room temperature storage
Format: physicochemical
Procedure: Oligosaccharides 2′Fucosyllactose (2′FL) and Lacto-N-neotetraose (LNnT) were mixed in a 10:1 ratio (w/w) and dissolved in water to a final concentration of 10% (w/v). Out of this solution, […] samples were generated respectively having pH 6 and 7 (by addition of KOH) Such samples were subjected to heat treatment (UHT) followed by aseptic filling of small monodose bottles. Solutions at different pHs were analysed before and after filling of bottles as well as after different times of storage at room temperature (21-26° C.). Analysis was done by HPLC using a TSK gel Amide-80 (150 mm×4.6 mm, particle size: 3 μm) column and detection via a charged aerosol detector. F or 2′FL (FIG. 2a), LNnT (FIG. 2d), the fructose isomers of the added 2′FL (indicated as FL lactulose in the graphs, FIG. 2d) and of added LNnT (indicated as LNnT isomer in the graphs, FIG. 2e) as well as for their degradation products (lactose, FIG. 2c). The pH of the solution was also measured. All data are expressed as % of added oligosaccharides.

LNnT isomers formation (pH 6, compared with pH 7): much lower
oligosaccharide amounts at aseptic filling and over time (pH 6, UHT, aseptic filling, storage at 21-26° C., 2′FL:LNnT 10:1, 10% w/v): much more stable
Structure (SMILES): CC(=O)N[C@H]1[C@H](O[C@H]2[C@@H](O)[C@@H](CO)O[C@@H](O[C@H]3[C@H](O)[C@@H](O)C(O)O[C@@H]3CO)[C@@H]2O)O[C@H](CO)[C@@H](O[C@@H]2O[C@H](CO)[C@H](O)[C@H](O)[C@H]2O)[C@@H]1O (mixture of isomers) [LNnT, lacto-N-neotetraose]
